Like-named read-outs stand apart in the source and are kept apart here.
Experiments:
NLuc C. parvum = NLuc C. parvum growth in HCT-8 cells (UW); type: cell-based; settings: Cryptosporidium parvum
NLuc C. parvum (Calibr) = assay: Calibr panel, UA Nanoluc C. parvum count; type: cell-based; settings: Cryptosporidium parvum
PKD3 = PKD3 (Homo sapiens, UniProt O94806); assay: Kinome profiling; type: biochemical
[1] = Stability of M2 hemiaminal in buffer; type: physicochemical; settings: pH 6.8 phosphate buffer, ambient temperature
[2] = Plasma concentrations in calf model; type: in vivo; settings: after BKI-1708 5 mg/kg BID
[3] = Dog PK (r10 PO 1, r11 IV 1, r12-r14 PO 3, 10, 30 mg/kg); type: in vivo; settings: after BKI-1708 PO 1 mg/kg
CYP1A2 [4] = target: T1, CYP1A2 (Homo sapiens, UniProt P05177); assay: in vitro; settings: recombinant CYP1A2 supersomes
T1 sequence (P05177 1-516): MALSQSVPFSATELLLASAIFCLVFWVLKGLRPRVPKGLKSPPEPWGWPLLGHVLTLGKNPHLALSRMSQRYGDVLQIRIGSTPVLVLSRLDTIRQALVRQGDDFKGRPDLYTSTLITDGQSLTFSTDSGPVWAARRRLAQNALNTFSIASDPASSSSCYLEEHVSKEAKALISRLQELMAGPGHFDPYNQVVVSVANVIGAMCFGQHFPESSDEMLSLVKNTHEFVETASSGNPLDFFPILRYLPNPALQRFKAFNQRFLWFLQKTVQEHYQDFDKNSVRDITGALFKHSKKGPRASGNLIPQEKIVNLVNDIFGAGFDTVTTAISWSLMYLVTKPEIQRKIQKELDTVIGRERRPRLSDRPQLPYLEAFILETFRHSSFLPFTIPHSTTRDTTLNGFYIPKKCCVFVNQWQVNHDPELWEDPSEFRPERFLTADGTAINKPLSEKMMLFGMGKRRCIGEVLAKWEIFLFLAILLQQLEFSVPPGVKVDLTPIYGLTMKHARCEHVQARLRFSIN

CYP2B6 = target: T2, CYP2B6 (Homo sapiens, UniProt P20813); assay: in vitro; settings: recombinant CYP2B6 supersomes
T2 sequence (P20813 1-491): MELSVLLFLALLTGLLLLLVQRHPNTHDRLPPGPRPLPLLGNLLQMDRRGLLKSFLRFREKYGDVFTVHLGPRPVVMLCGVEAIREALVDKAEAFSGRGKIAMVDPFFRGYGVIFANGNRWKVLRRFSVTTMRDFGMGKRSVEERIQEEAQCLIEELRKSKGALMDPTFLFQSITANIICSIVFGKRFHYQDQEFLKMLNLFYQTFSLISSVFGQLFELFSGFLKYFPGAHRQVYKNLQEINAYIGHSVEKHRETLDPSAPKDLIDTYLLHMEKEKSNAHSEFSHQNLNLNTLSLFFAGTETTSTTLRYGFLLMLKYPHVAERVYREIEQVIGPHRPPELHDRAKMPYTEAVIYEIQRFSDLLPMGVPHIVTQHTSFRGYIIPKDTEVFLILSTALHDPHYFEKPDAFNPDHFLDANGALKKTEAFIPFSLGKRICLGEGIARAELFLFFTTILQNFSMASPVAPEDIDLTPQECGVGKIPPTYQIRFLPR

CYP2D6 = CYP2D6 (Homo sapiens, UniProt P10635); assay: in vitro; settings: recombinant CYP2D6 supersomes
Chain of CYP2D6 (P10635 whole entry): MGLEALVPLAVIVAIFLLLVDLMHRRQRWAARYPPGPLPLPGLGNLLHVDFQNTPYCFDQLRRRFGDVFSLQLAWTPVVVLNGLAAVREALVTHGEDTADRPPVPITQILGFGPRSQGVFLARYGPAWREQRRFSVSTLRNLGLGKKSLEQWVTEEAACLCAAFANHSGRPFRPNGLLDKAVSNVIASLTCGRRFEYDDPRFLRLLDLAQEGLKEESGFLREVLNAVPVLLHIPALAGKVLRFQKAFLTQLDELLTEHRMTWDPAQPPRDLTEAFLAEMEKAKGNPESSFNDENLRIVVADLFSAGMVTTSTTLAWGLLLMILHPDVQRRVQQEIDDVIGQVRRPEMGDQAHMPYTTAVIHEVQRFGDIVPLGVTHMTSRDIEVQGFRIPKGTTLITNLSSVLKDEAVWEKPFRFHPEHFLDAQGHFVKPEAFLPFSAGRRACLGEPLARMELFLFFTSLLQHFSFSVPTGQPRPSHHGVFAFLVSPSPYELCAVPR

hERG = hERG (Homo sapiens, UniProt Q12809); assay: cell-based
Chain of hERG (Q12809 whole entry): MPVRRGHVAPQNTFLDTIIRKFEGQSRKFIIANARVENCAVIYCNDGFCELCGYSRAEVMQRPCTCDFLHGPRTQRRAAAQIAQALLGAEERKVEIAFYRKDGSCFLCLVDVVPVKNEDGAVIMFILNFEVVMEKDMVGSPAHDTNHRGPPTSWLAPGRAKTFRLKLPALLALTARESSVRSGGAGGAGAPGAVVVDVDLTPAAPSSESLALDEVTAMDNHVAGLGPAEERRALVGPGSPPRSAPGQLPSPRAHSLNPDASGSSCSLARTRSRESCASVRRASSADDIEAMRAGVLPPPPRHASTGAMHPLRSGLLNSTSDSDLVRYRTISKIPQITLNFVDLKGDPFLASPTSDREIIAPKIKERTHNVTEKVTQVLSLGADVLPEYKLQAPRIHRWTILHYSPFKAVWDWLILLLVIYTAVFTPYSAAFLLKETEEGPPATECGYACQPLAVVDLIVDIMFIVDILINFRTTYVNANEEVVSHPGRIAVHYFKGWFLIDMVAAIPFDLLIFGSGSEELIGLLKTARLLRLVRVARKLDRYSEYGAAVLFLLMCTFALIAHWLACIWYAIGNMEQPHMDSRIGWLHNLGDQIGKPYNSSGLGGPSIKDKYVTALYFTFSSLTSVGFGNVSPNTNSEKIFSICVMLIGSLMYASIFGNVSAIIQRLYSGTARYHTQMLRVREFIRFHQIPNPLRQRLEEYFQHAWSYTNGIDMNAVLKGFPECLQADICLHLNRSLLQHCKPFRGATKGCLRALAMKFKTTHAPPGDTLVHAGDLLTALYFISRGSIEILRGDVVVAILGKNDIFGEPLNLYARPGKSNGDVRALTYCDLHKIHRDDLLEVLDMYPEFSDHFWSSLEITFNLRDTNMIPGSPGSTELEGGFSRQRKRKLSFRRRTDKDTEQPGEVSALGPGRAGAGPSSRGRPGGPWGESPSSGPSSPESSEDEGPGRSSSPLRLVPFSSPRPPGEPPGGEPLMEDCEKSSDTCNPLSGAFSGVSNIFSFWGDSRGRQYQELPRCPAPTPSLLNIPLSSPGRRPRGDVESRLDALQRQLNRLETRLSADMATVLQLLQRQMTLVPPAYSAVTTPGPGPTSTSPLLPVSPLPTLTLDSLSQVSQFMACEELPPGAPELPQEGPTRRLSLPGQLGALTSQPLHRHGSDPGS

CYP1A2 [5] = target: T1, CYP1A2; assay: biochemical
Cytotoxicity [6] = settings: human, CRL-8155 B-lymphocyte cell line
Cytotoxicity [7] = settings: human, HEPG2 hepatocyte cell line
Hepatocyte stability = settings: monkey
[8] = Liver microsome stability; settings: rat, pooled liver microsomes
[9] = Liver microsome stability; settings: dog, pooled liver microsomes
[10] = Liver microsome stability; settings: monkey, pooled liver microsomes
[11] = HCT-8 host cell count (Calibr); settings: human
[12] = test system: micronuclei in interphase cells; assay: In vitro micronucleus (IVMN) test
CYP1A1 = assay: CYP Induction Assay in dog hepatocytes; settings: 30 and 100 μM, 48 h
[13] = Plasma protein binding, equilibrium dialysis; settings: rat
[14] = Plasma protein binding, equilibrium dialysis; settings: bovine
[15] = Plasma levels in IFNγ-KO mouse efficacy model
CYP3A4 = CYP3A4 (Homo sapiens, UniProt P08684); assay: CYP reaction phenotyping, recombinant supersomes
Chain of CYP3A4 (P08684 whole entry): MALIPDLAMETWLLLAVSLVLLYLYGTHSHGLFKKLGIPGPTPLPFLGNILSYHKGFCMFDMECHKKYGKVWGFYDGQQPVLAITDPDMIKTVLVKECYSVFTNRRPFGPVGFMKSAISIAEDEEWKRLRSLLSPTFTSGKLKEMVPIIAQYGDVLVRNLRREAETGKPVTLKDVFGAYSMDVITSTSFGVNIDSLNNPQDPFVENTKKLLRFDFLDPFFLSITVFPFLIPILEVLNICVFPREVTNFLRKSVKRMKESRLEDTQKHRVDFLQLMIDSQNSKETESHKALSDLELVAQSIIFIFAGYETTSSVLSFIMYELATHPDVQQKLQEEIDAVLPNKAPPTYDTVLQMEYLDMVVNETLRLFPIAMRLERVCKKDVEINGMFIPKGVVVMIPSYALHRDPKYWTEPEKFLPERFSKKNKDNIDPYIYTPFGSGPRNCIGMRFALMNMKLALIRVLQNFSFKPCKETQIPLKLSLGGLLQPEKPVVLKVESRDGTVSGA

Chain of PKD3 (O94806 whole entry): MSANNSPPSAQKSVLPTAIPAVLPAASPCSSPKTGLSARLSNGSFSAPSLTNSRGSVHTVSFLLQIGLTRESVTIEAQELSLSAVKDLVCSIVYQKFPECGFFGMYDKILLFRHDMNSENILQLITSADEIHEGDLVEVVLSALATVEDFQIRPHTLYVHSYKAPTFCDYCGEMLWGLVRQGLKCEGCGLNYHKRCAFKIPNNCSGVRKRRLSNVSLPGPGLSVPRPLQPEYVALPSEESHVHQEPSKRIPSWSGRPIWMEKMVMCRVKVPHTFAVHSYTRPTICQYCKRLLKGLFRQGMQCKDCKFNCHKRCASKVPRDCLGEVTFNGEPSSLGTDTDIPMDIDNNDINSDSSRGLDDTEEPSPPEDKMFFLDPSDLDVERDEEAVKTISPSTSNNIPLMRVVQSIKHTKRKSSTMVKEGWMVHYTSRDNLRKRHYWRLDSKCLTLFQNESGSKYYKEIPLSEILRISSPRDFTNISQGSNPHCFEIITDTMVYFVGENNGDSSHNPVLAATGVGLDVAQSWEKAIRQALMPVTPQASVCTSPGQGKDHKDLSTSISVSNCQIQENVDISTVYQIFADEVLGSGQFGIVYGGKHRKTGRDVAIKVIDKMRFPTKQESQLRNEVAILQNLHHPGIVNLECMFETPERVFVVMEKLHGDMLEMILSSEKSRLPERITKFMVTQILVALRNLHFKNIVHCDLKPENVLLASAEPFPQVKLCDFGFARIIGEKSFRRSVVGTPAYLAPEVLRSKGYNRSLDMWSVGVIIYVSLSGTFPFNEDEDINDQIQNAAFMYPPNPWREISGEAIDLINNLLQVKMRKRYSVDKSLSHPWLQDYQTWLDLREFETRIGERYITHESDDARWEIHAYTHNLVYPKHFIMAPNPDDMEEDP

For `CC1(C)Cn2nc(-c3ccc4cc(OC5CC5)ccc4c3)c(C(N)=O)c2NC1O` (stereo not shown) [M2], the EC50 (NLuc C. parvum) was 0.73 µM, the EC50 (NLuc C. parvum (Calibr); Replicate 1, read-out: UA Nanoluc C. parvum Count EC50) was 0.468 µM and the EC90 (NLuc C. parvum (Calibr); Replicate 1, read-out: UA Nanoluc C. parvum Count EC90) was 1.46 µM. For the same molecule, the EC50 (NLuc C. parvum (Calibr); Replicate 2, read-out: UA Nanoluc C. parvum Count EC50) was 0.212 µM, the EC90 (NLuc C. parvum (Calibr); Replicate 2, read-out: UA Nanoluc C. parvum Count EC90) was 1.01 µM and the EC50 (NLuc C. parvum (Calibr); read-out: EC50) was 0.34 µM. For the same molecule, the EC90 (NLuc C. parvum (Calibr); read-out: EC90) was 1.24 µM, the IC50 (PKD3) was 0.23 µM and the time hemiaminal stable [1] was “up to 24 h”. For the same molecule, the “average peak concentration of M2” value [2] was 7.1 ± 4.4 µM, the “M2 AUC0-inf” value [3] was 196 ± 12 µmol·min/L and the CLint scaled (CYP1A2 [4]) was 2.78 mL/min/kg. It also gave a half-life (CYP1A2 [4]) of 1 h, a CLint scaled (CYP2B6) of 0.35 mL/min/kg and a half-life (CYP2B6) of 2.65 h. For the same molecule, the CLint scaled (CYP2D6) was under 0.183 mL/min/kg, the half-life (CYP2D6) was over 4 h and the IC50 (hERG) was 6.2 µM. It also gave an IC50 (CYP1A2 [5]) of over 40 µM, a CC50 (Cytotoxicity [6]) of 15.6 µM and a CC50 (Cytotoxicity [7]) of 13.4 µM. The “LM:hepatocyte CLint_scaled ratio” value (Hepatocyte stability; liver microsomes and primary hepatocytes) was 5.5, the CLint scaled (Hepatocyte stability; primary hepatocytes) was 10 mL/min/kg and the half-life (Hepatocyte stability; primary hepatocytes) was 6.48 h. The hepatocyte CLint (Hepatocyte stability; primary hepatocytes) was 3.6 µL/min/1e6 cells, the CLint scaled [8] was under 41.7 mL/min/kg and the half-life [8] was over 2 h. It also gave a microsomal CLint [8] of under 23.1 µL/min/mg, a CLint scaled [9] of under 33.3 mL/min/kg and a half-life [9] of over 2 h. It also gave a microsomal CLint [9] of under 23.1 µL/min/mg, a CLint scaled [10] of 55 mL/min/kg and a half-life [10] of 0.95 h. For the same molecule, the microsomal CLint [10] was 48.6 µL/min/mg, the CC50 ([11]; CC50, HCT-8 cells infected with BGF Cp, Replicate 1) was over 25 µM and the CC50 ([11]; CC50, HCT-8 cells infected with BGF Cp, Replicate 2) was over 25 µM. It also gave a CC50 ([11]; CC50, HCT-8 cells infected with Ch, Replicate 1) of over 25 µM, a CC50 ([11]; CC50, HCT-8 cells infected with Ch, Replicate 2) of over 25 µM and a CC50 ([11]; CC50, HCT-8 cells infected with UA Nluc Cp, Replicate 1) of over 25 µM. The CC50 ([11]; CC50, HCT-8 cells infected with UA Nluc Cp, Replicate 2) was over 25 µM, the IVMN test result [12] was “negative” and the “induction of CYP1A1” value (CYP1A1) was “strong inducers”. The fraction unbound [13] was 0.06, the fraction unbound [14] was 0.05 and the peak plasma exposure ([15]; M2 8 mg/kg x 3 days) was 3.0 ± 1.0 µM. For the same molecule, the peak plasma level ([15]; M2 15 mg/kg x 3 days) was 6.8 ± 1.2 µM, the peak plasma level ([15]; M2 30 mg/kg x 3 days) was 7.7 ± 3.6 µM and the “% contribution” value (CYP3A4) was 47.9%. It also gave a CLint (CYP3A4) of 0.141 µL/min/pmol.

— article PMC12310023 (PLOS Neglected Tropical Diseases, 2025)
